Test systems include 786-0; A549; CAKI-1; COLO 205; HCT-15; HT-29; IGROV-1; NCI-H226; NCI-H23; SF-268; SF-539; SK-MEL-28; SN12C; SNB-75; TK-10; UO-31; RXF 393.
Test in all cases: inhibition of tumour cell growth, NCI panel, 48 h

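These data come from cells grown in 96-well plates and exposed to compound for 48 hours at five concentrations. GI50 = concentration required for 50% inhibition of growth.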 Active and inactive are the calls of the source. Cut-off read from the data, not from the text of the source: active = GI50 up to about 1.1 µM and inactive = higher.

As to `CC(/C=C/NNC1=NN=C(c2ccccc2)C(c2ccccc2)N1)Sc1ccccc1N` (stereo unspecified), the GI50 in the assay with 786-0 is 3.71 µM (inactive); with A549, 11.4 µM (inactive); in the assay on CAKI-1, 14.7 µM (inactive); in the assay on COLO 205, 15.3 µM (inactive); in the assay on HCT-15, 4.89 µM; with HT-29, 11 µM (inactive). The GI50 was 14.4 µM (inactive) in the assay with IGROV-1; 10.9 µM (inactive) with NCI-H226; 12.9 µM (inactive) in the assay with NCI-H23; 4.53 µM (inactive) in the assay with SF-268; 8.24 µM (inactive) with SF-539; 8.93 µM (inactive) in the assay with SK-MEL-28. Besides, the GI50 was 5.79 µM (inactive) with SN12C, 3.3 µM (inactive) in the assay on SNB-75, 14.2 µM (inactive) with TK-10 and 6.53 µM (inactive) in the assay with UO-31.

With `NC1=NS(=O)(=O)N=C(N)C1=Cc1ccc([N+](=O)[O-])o1`, the GI50 was 17.1 µM (inactive) in the assay with 786-0; 52 µM (inactive) with A549; 15.7 µM (inactive) in the assay on COLO 205; 16.8 µM in the assay with HCT-15; 18.2 µM (inactive) with HT-29; 18.2 µM (inactive) in the assay on IGROV-1. The GI50 in the assay on NCI-H226 was 30.8 µM (inactive); in the assay on NCI-H23 it was 17.3 µM (inactive); in the assay with RXF 393 it was 18.8 µM (inactive); with SF-268, 17.5 µM (inactive); in the assay on SF-539 it was 18.3 µM (inactive); in the assay with SK-MEL-28, 16 µM (inactive). Besides, the GI50 in the assay on SN12C was 16.5 µM (inactive); in the assay on SNB-75, 16.3 µM (inactive); in the assay on TK-10 it was 18.6 µM (inactive); with UO-31, 17.9 µM (inactive).

Regarding `CCSc1nnc(-c2ccccc2)nc1Cc1ccc(OC)cc1`, the GI50 in the assay with 786-0 was > 100 µM (inactive); with A549, 42.2 µM (inactive); with COLO 205, 86.9 µM (inactive); in the assay on HCT-15, 82 µM; in the assay with HT-29, > 100 µM (inactive); in the assay with IGROV-1, > 100 µM (inactive). Besides, the GI50 in the assay on NCI-H226 is > 100 µM (inactive); in the assay on NCI-H23 it was 63.4 µM (inactive); in the assay on RXF 393 it was > 100 µM (inactive); in the assay on SF-268, > 100 µM (inactive); with SF-539, > 100 µM (inactive); in the assay with SK-MEL-28, > 100 µM (inactive). Moreover, the GI50 with SN12C was > 100 µM (inactive); in the assay with SNB-75, 65.8 µM (inactive); with TK-10, > 100 µM (inactive); with UO-31, > 100 µM (inactive).

Regarding `CC(C)c1ccccc1NC(=O)CCC(=O)NN`, the GI50 in the assay on 786-0 was > 100 µM (inactive); in the assay on A549, > 100 µM (inactive); in the assay on CAKI-1 it was > 100 µM (inactive); in the assay on HCT-15, > 100 µM; with IGROV-1, > 100 µM (inactive); with NCI-H226, > 100 µM (inactive). The GI50 in the assay with NCI-H23, in the assay on SF-268, in the assay with SF-539, with SK-MEL-28, in the assay with SN12C and in the assay on SNB-75 was > 100 µM (inactive) throughout. Moreover, the GI50 in the assay with TK-10 and in the assay with UO-31 was > 100 µM (inactive) throughout.

With `CCN(CC)C(=O)CCn1ccc(=O)[nH]c1=O`, the GI50 with 786-0 is > 100 µM (inactive); in the assay on A549 it was > 100 µM (inactive); in the assay on COLO 205, > 100 µM (inactive); in the assay with HCT-15 it was > 100 µM; with HT-29 it was > 100 µM (inactive); in the assay with IGROV-1 it was > 100 µM (inactive). Further, the GI50 with NCI-H226, in the assay with NCI-H23, with RXF 393, in the assay on SF-268, in the assay on SF-539 and in the assay on SK-MEL-28 was > 100 µM (inactive) each time. The GI50 is > 100 µM (inactive) with SN12C, 43.1 µM (inactive) in the assay with SNB-75, > 100 µM (inactive) with TK-10 and > 100 µM (inactive) in the assay on UO-31.

On to `O=C1CC2=CCCC2O1` (stereo unspecified), for which the GI50 with 786-0 is > 100 µM (inactive); in the assay on A549, > 100 µM (inactive); with CAKI-1, > 100 µM (inactive); with COLO 205, > 100 µM (inactive); in the assay with HCT-15 it was > 100 µM; in the assay with HT-29, > 100 µM (inactive). The GI50 with IGROV-1, in the assay on NCI-H23, in the assay with RXF 393, in the assay on SF-268, with SF-539 and with SK-MEL-28 was > 100 µM (inactive) each time. Moreover, the GI50 with SN12C, in the assay with SNB-75, with TK-10 and in the assay on UO-31 was > 100 µM (inactive) in each case.

For the compound `CCOC(=O)CCC(=O)C1c2cccc(O)c2C(=O)c2c(O)cccc21`, the GI50 in the assay with 786-0 is 1.74 µM (inactive); in the assay with A549, 0.61 µM (active); with CAKI-1, 2.36 µM (inactive); with COLO 205, 2.01 µM (inactive); with HT-29, 2.74 µM (inactive); in the assay with IGROV-1 it was 1.87 µM (inactive). Also, the GI50 in the assay with NCI-H23 is 1.37 µM (inactive); in the assay on RXF 393, 0.71 µM (active); in the assay on SF-268 it was 0.908 µM (active); with SF-539, 0.411 µM (active); in the assay on SK-MEL-28, 1.33 µM (inactive); with SN12C, 1.33 µM (inactive). Further, the GI50 is 0.877 µM (active) with SNB-75, 2.38 µM (inactive) in the assay on TK-10 and 0.356 µM (active) in the assay on UO-31.

In the case of `O=C1C(c2ccccc2)=[N+]([O-])c2ccc(Cl)cc21`, the GI50 was 82.4 µM (inactive) with 786-0; 32.1 µM (inactive) with A549; 14.1 µM (inactive) in the assay on COLO 205; 20 µM in the assay on HCT-15; 22 µM (inactive) in the assay on HT-29; 20.6 µM (inactive) in the assay with IGROV-1. Further, the GI50 in the assay on NCI-H226 was 14.7 µM (inactive); in the assay on NCI-H23 it was 31.6 µM (inactive); with RXF 393 it was 13.2 µM (inactive); with SF-268, 22.4 µM (inactive); in the assay on SF-539, 20.2 µM (inactive); with SK-MEL-28 it was 20 µM (inactive). Further, the GI50 with SN12C was 24.2 µM (inactive); with SNB-75, 46.8 µM (inactive); with TK-10 it was 29.2 µM (inactive); with UO-31 it was 43.3 µM (inactive).

On to `CSc1sc(=S)sc1C(=O)N(C)c1ccccc1`, for which the GI50 in the assay with 786-0 was > 100 µM (inactive); in the assay with A549, > 100 µM (inactive); with COLO 205 it was > 100 µM (inactive); with HCT-15 it was > 100 µM; in the assay with HT-29 it was > 100 µM (inactive); in the assay with IGROV-1, > 100 µM (inactive). Besides, the GI50 is > 100 µM (inactive) in the assay on NCI-H226; > 100 µM (inactive) in the assay with NCI-H23; 81.5 µM (inactive) in the assay on RXF 393; > 100 µM (inactive) in the assay on SF-268; > 100 µM (inactive) in the assay with SF-539; > 100 µM (inactive) with SK-MEL-28. Further, the GI50 is > 100 µM (inactive) in the assay with SN12C, 22.6 µM (inactive) in the assay with SNB-75, > 100 µM (inactive) in the assay on TK-10 and > 100 µM (inactive) in the assay on UO-31.

With `CSC(=O)C[C@@]12O[C@@H]([C@@H](C)C3CCC4[C@@H]5C(O)CC6=CC(=O)C=C[C@]6(C)C5CC[C@@]43C)C[C@](C)(O1)C(C)(C)O2` (stereo partly specified), the GI50 in the assay on 786-0 was 16.1 µM (inactive); in the assay with A549, 15.5 µM (inactive); with CAKI-1 it was 18.6 µM (inactive); in the assay on HCT-15, 17.3 µM; in the assay with HT-29 it was 14.5 µM (inactive); in the assay on IGROV-1, 16.1 µM (inactive). Moreover, the GI50 with NCI-H226 is 22.3 µM (inactive); with NCI-H23 it was > 10 µM (inactive); with RXF 393, 11.6 µM (inactive); with SF-268, 16.4 µM (inactive); in the assay on SF-539 it was 16.3 µM (inactive); in the assay with SK-MEL-28, 17.9 µM (inactive). For the same compound, the values for the GI50 in the assay with SN12C, in the assay with TK-10 and with UO-31 were 16.6 µM (inactive), 17.8 µM (inactive) and 12.3 µM (inactive), respectively.

Take `BrC12C3C4C5C(C(C43)C13OCCO3)C52` (stereo unspecified): the GI50 in the assay on 786-0, with A549, in the assay with COLO 205, with HT-29, in the assay with IGROV-1 and in the assay on NCI-H23 was > 100 µM (inactive) in each case. The GI50 with RXF 393, in the assay with SF-268, in the assay on SF-539, in the assay with SK-MEL-28, in the assay on SNB-75 and with TK-10 was > 100 µM (inactive) in each case. Further, the GI50 in the assay with UO-31 is > 100 µM (inactive).

As to `CC12CC/C(=N/NC(N)=O)C3C1CCCC32`, the GI50 in the assay on 786-0 is > 100 µM (inactive); in the assay with A549, > 100 µM (inactive); in the assay with CAKI-1, > 100 µM (inactive); in the assay with COLO 205 it was > 100 µM (inactive); with HCT-15, > 100 µM; with HT-29, > 100 µM (inactive). For the same compound, the GI50 in the assay with IGROV-1, in the assay with NCI-H226, in the assay on NCI-H23, with SF-268, in the assay with SF-539 and in the assay on SK-MEL-28 was > 100 µM (inactive) in each case. Also, the GI50 in the assay with SN12C, with SNB-75, in the assay with TK-10 and in the assay on UO-31 was > 100 µM (inactive) throughout.

Take `N#[N+][c-]1c(-c2ccccc2)n[nH]c1=O`: the GI50 is > 100 µM (inactive) in the assay with 786-0; > 100 µM (inactive) in the assay on A549; > 100 µM (inactive) with CAKI-1; > 100 µM (inactive) in the assay on COLO 205; > 100 µM with HCT-15; > 100 µM (inactive) with HT-29. In addition, the GI50 in the assay with IGROV-1, in the assay on NCI-H226, with NCI-H23, in the assay on RXF 393, in the assay with SF-268 and with SF-539 was > 100 µM (inactive) each time. In addition, the GI50 in the assay with SK-MEL-28, in the assay on SN12C, with SNB-75 and with TK-10 was > 100 µM (inactive) in each case.

These data come from ChEMBL document CHEMBL1201862, “PubChem BioAssay data set” (2004).
